Reference: patent publication US9045493B2, “Furo[3,2-b]- and thieno[3,2-b]pyridin derivatives” (Merck Patent GmbH, priority 2012, dated 2015)

Legend:
[1] = biological target: T1, TANK binding kinase (TBK1) (Homo sapiens, UniProt Q9UHD2); assay: TBK1 enzyme assay (384-well Flashplate kinase assay); format: biochemical; conditions: 10 μM ATP, 120 Min at 30° C.
T1 sequence (Q9UHD2 1-729): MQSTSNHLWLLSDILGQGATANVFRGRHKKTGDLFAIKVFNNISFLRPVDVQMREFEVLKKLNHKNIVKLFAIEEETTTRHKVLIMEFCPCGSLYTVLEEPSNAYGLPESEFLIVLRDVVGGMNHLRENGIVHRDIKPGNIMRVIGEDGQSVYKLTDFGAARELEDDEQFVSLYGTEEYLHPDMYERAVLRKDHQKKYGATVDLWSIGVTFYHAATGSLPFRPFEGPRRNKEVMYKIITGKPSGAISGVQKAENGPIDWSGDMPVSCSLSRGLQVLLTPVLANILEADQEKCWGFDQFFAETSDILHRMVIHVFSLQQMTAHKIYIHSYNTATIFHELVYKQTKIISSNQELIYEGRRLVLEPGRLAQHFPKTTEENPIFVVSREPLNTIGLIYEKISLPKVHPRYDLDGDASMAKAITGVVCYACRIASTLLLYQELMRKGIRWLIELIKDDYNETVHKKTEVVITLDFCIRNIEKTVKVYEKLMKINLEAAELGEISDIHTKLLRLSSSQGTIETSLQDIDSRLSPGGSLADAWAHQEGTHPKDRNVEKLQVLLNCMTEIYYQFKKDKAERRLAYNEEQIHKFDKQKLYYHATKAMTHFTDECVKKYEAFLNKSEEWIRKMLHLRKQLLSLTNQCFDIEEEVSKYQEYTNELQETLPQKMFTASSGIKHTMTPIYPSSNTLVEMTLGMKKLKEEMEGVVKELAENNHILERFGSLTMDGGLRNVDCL
In short: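 Radiometric Flashplate assay: 0.6 nM TBK1, 800 nM biotinylated MELK-derived peptide and 10 μM ATP with 33P-ATP, 120 min at 30 °C in MOPS/Mg-acetate buffer pH 7.5. Stopped with EDTA; nonspecific signal defined with 100 nM staurosporine; IC50 from counted radioactivity.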

[2] = biological target: T2, IKKε (Homo sapiens, UniProt Q14164); assay: IKKε kinase assay (384-well Flashplate); format: biochemical; conditions: 10 μM ATP, 2 hours at 30° C.; read-out: IKKε enzyme assay IC50
T2 sequence (Q14164 1-716): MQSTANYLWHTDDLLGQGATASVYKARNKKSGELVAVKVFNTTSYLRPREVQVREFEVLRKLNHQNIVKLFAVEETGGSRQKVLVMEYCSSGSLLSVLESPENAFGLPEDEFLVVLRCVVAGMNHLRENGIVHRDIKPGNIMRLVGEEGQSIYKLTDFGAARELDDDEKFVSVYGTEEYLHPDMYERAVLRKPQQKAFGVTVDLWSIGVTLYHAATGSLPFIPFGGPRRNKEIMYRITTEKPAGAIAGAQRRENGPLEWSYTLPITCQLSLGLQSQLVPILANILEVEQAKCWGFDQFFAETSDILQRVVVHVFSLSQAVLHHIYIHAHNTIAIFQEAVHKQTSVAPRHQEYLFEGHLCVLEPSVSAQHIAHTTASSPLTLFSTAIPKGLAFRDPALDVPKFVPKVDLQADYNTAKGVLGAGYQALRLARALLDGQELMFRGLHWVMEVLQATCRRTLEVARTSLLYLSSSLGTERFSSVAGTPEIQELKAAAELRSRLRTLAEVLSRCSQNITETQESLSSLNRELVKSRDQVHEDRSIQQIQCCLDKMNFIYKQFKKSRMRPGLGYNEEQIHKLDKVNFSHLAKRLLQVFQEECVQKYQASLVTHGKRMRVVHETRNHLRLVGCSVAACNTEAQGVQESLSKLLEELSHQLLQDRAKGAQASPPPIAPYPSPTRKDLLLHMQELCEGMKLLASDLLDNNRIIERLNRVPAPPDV
In short: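 1 nM IKKε with 800 nM biotinylated IκBα(19-42) peptide and 10 μM ATP spiked with ^33P-ATP, 2 h at 30 °C in MOPS buffer pH 7.5. EDTA stop, Flashplate capture, washes, then radioactivity counted; IC50 derived.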

SMILES	IC50 [1]	IC50 [2]
CN1CCN(C(=O)c2ccc(-c3cc4nccc(-c5ccc(N6CCCC6)c(C#N)c5)c4o3)cc2)CC1 [Compound A74]	< 300 nM	< 300 nM
CN1CCN(C(=O)c2ccc(-c3cc4nccc(-c5ccc(N6CCOCC6)c(C#N)c5)c4o3)cc2)CC1 [Compound A76]	< 300 nM	< 300 nM
N#Cc1cc(-c2ccnc3cc(-c4ccc(C(=O)NCCN5CCNC5=O)cc4)oc23)ccc1OC1CCOCC1 [Compound A77]	< 300 nM	< 300 nM
N#Cc1cc(-c2ccnc3cc(-c4ccc(C(=O)NCCc5cccnc5)cc4)oc23)ccc1OC1CCOCC1 [Compound A81]	300 to 3000 nM	< 300 nM
N#Cc1cc(-c2ccnc3cc(-c4ccc(C(=O)NC5COc6ccccc6C5)cc4)oc23)ccc1OC1CCOCC1 (centres unmarked) [Compound A82]	300 to 3000 nM	300 to 3000 nM
N#Cc1cc(-c2ccnc3cc(-c4ccc(C(=O)NCCN5CCC(F)(F)CC5)cc4)oc23)ccc1OC1CCOCC1 [Compound A83]	< 300 nM	< 300 nM
N#Cc1cc(-c2ccnc3cc(-c4ccc(C(=O)N5CCNC(=O)CC5)cc4)oc23)ccc1OC1CCOCC1 [Compound A86]	< 300 nM	< 300 nM
COc1cc(-c2cc3nccc(-c4ccc(OC5CCOCC5)c(C#N)c4)c3o2)ccc1C(=O)NC1CCCN(C)C1 (centres unmarked) [Compound A88]	< 300 nM	< 300 nM
COc1cc(-c2cc3nccc(-c4ccc(OC5CCOCC5)c(C#N)c4)c3o2)ccc1C(=O)N1CCN(CCO)CC1 [Compound A89]	< 300 nM	< 300 nM
COc1cc(-c2cc3nccc(-c4ccc(OC5CCOCC5)c(C#N)c4)c3o2)ccc1C(=O)N1CCNC(=O)CC1 [Compound A91]	< 300 nM	< 300 nM
COc1cc(-c2cc3nccc(-c4ccc(OC5CCOCC5)c(C#N)c4)c3o2)ccc1C(=O)N1CC[C@H](O)C1 [Compound A92]	< 300 nM	< 300 nM
COc1cc(-c2cc3nccc(-c4ccc(OC5CCOCC5)c(C#N)c4)c3o2)ccc1C(=O)NCC(N)=O [Compound A93]	< 300 nM	< 300 nM
CN(CCO)C(=O)c1ccc(-c2cc3nccc(-c4ccc(OC5CCOC5)c(C#N)c4)c3s2)cc1 (centres unmarked) [Compound A95]	< 300 nM	< 300 nM
N#Cc1cc(-c2ccnc3cc(-c4cnn(C5CCNCC5)c4)sc23)ccc1OC1CCOCC1 [Compound A96]	< 300 nM	< 300 nM
N#Cc1cc(-c2ccnc3cc(-c4cnn(C5CCN(CCO)CC5)c4)sc23)ccc1OC1CCOCC1 [Compound A97]	< 300 nM	< 300 nM
COc1cc(-c2cc3nccc(-c4ccc(OC5CCOCC5)c(C#N)c4)c3o2)ccc1C(=O)N[C@@H]1CCCNC1 [Compound A106]	< 300 nM	< 300 nM
CN(CCO)C(=O)c1ccc(-c2cc3nccc(-c4ccc(OC5CCOCC5)c(C#N)c4)c3o2)c(F)c1 [Compound A107]	< 300 nM	< 300 nM
COc1cc(-c2cc3nccc(-c4ccc(OC5CCOCC5)c(C#N)c4)c3o2)ccc1C(=O)N1CCNC(=O)C1 [Compound A109]	< 300 nM	< 300 nM
N#Cc1cc(-c2ccnc3cc(-c4ccc(C(=O)N5CCNCC5)cc4F)oc23)ccc1OC1CCOCC1 [Compound A111]	< 300 nM	< 300 nM
N#Cc1cc(-c2ccnc3cc(-c4ccc(C(=O)N5CCC(O)CC5)cc4F)oc23)ccc1OC1CCOCC1 [Compound A113]	< 300 nM	< 300 nM
COc1cc(C(=O)N(C)C)ccc1-c1cc2nccc(-c3ccc(OC4CCOCC4)c(C#N)c3)c2o1 [Compound A117]	< 300 nM	< 300 nM

The next lines start with the values.

IC50 [1]	IC50 [2]	SMILES
< 300 nM	< 300 nM	N#Cc1cc(-c2ccnc3cc(-c4ccc(C(=O)N5CCNCC5)cc4)oc23)ccc1N1CCOCC1 [Compound A73]
< 300 nM	< 300 nM	N#Cc1cc(-c2ccnc3cc(-c4ccc(C(=O)NCCN5CCCC5)cc4)oc23)ccc1OC1CCOCC1 [Compound A78]
< 300 nM	< 300 nM	N#Cc1cc(-c2ccnc3cc(-c4ccc(C(=O)NCCN5CCOCC5)cc4)oc23)ccc1OC1CCOCC1 [Compound A79]
< 300 nM	< 300 nM	CC(=O)NCCNC(=O)c1ccc(-c2cc3nccc(-c4ccc(OC5CCOCC5)c(C#N)c4)c3o2)cc1 [Compound A80]
< 300 nM	< 300 nM	N#Cc1cc(-c2ccnc3cc(-c4ccc(C(=O)N5CCN(CCO)CC5)cc4)oc23)ccc1OC1CCOCC1 [Compound A84]
300 to 3000 nM	300 to 3000 nM	N#Cc1cc(-c2ccnc3cc(-c4ccc(C(=O)NCCC(F)(F)F)cc4)oc23)ccc1OC1CCOCC1 [Compound A85]
< 300 nM	< 300 nM	COc1cc(-c2cc3nccc(-c4ccc(OC5CCOCC5)c(C#N)c4)c3o2)ccc1C(=O)NCCN1CCNC1=O [Compound A87]
< 300 nM	< 300 nM	COc1cc(-c2cc3nccc(-c4ccc(OC5CCOCC5)c(C#N)c4)c3o2)ccc1C(=O)NCCN1CCC(F)(F)CC1 [Compound A90]
< 300 nM	< 300 nM	COc1cc(-c2cc3nccc(-c4ccc(OC5CCOCC5)c(C#N)c4)c3o2)ccc1C(=O)N[C@H]1CCCNC1 [Compound A94]
< 300 nM	< 300 nM	COc1cc(-c2cc3nccc(-c4ccc(OC5CCOCC5)c(C#N)c4)c3o2)ccc1C(=O)N1CC[C@@H](O)C1 [Compound A98]
< 300 nM	< 300 nM	COc1cc(-c2cc3nccc(-c4ccc(OC5CCOCC5)c(C#N)c4)c3o2)ccc1C(=O)NC1CCN(C)CC1 [Compound A99]
< 300 nM	< 300 nM	COc1cc(-c2cc3nccc(-c4ccc(OC5CCOC5)c(C#N)c4)c3s2)ccc1C(=O)N1CCNCC1 (centres unmarked) [Compound A100]
< 300 nM	< 300 nM	COc1cc(-c2cc3nccc(-c4ccc(OC5CCOCC5)c(C#N)c4)c3o2)ccc1C(=O)N1CCC(O)CC1 [Compound A101]
< 300 nM	< 300 nM	COc1cc(-c2cc3nccc(-c4ccc(OC5CCOCC5)c(C#N)c4)c3o2)ccc1C(=O)N(C)C1CCOCC1 [Compound A102]
< 300 nM	< 300 nM	COc1cc(-c2cc3nccc(-c4ccc(OC5CCOCC5)c(C#N)c4)c3o2)ccc1C(=O)N1CCOC(CCO)C1 (centres unmarked) [Compound A103]
< 300 nM	< 300 nM	COc1cc(-c2cc3nccc(-c4ccc(OC5CCOCC5)c(C#N)c4)c3o2)ccc1C(=O)N1CCOCC1 [Compound A104]
< 300 nM	< 300 nM	COc1cc(-c2cc3nccc(-c4ccc(OC5CCOCC5)c(C#N)c4)c3o2)ccc1C(=O)NC1CCOCC1 [Compound A105]
< 300 nM	< 300 nM	N#Cc1cc(-c2ccnc3cc(-c4cnn(CCO)c4)sc23)ccc1OC1CCOCC1 [Compound A108]
< 300 nM	< 300 nM	N#Cc1cc(-c2ccnc3cc(-c4ccc(C(=O)N5CCNC(=O)CC5)cc4F)oc23)ccc1OC1CCOCC1 [Compound A112]
< 300 nM	< 300 nM	N#Cc1cc(-c2ccnc3cc(-c4ccc(C(=O)N5CCOCC5)cc4F)oc23)ccc1OC1CCOCC1 [Compound A114]
< 300 nM	< 300 nM	COc1cc(C(=O)N(C)CCO)ccc1-c1cc2nccc(-c3ccc(OC4CCOCC4)c(C#N)c3)c2o1 [Compound A115]
< 300 nM	< 300 nM	COc1cc(C(=O)N2CCC(O)CC2)ccc1-c1cc2nccc(-c3ccc(OC4CCOCC4)c(C#N)c3)c2o1 [Compound A116]
